# From patent US20040038369A1, “Airway-specific trypsin-like enzymes and method of using the same” (priority 2000, published 2004)
# Assays:
# [1] = test system: EGF on surface of H292 cell membrane; test: Surface antigen analysis (FACS) of EGF on NCI-H292 cell membrane; format: cell-based, human
# Procedure: (§1) NCI-H292 cells (purchased from ATCC) were cultured on a 10 cm dish in 10% FCS-containing RPMI-1640 until to reach a confluent state, subjected to the replacement of the culture medium by RPMI-1640 containing 0.1% of BSA, and further cultured for 24 hours. The cultured cells were washed with PBS, treated and floated in PBS containing 5 mM of EDTA at 37° C. for five minutes, and then suspended in 0.1%BSA-containing RPMI-1640 in a density of 1.0×10^7 cells/mL.
# (§2) The above-described cell suspension and 0.1% BSA-containing RPMI-1640 containing HAST in a double concentration (600 mU/mL) were mixed with each other in equivalent amounts, respectively, and reacted with each other at 37° C. for 30 minutes (final cell concentration: 5.0×10^6 cells/mL, final HAST concentration: 300 mU/mL). The reaction solution was mixed with ice-cooled 1% FCS-containing PBS in a volume of 5 times that of the reaction solution to stop the reaction, and the treated solution was then supplied for a surface antigen analysis.
# (§3) The cells subjected to the prescribed treatments were suspended in 1% FCS-containing PBS in a density of 1.0×10^7 cells/mL. 100 μL of the prepared cell suspension was mixed with a primary antigen (EGF back ground dyeing: 1 μg of normal mouse IgG1 (produced by R & D Corp.), EGF dyeing: 1 μg of an anti-EGF mouse monoclonal antibody (produced by R & D Corp.), HB-EGF back ground dyeing: free from the primary antigen, HB-EGF dyeing: 2 μg of an anti-HB-EGF goat polyclonal antibody (produced by R & D Corp.)) and reacted on ice for 30 minutes. The reaction product was once washed with 5 mL of 1% FCS-containing PBS, mixed with 2 μg of a secondary antigen (EGF back ground dyeing and EGF dyeing: FITC conjugated F(ab′)2 fragment to mouse IgG (produced by Dako Corp.), HB-EGF back ground dyeing and HB-EGF dyeing: Swine Anti-Goat Ig's Fluorescein Conjugate (produced by KPL Corp.)), and then reacted on ice for 30 minutes. The reaction solution was once washed with 5 mL of 1% FCS-containing PBS, and then mixed with Cell Fix (produced by Becton Dickinson Corp.) to immobilize the cells. The expression of the surface antigen was assayed with FACS Calibur (produced by Becton Dickinson Corp.) and analyzed with Cell Quest (produced by Becton Dickinson Corp.). Average fluorescence intensities were shown in the next table as the indicators of expression intensities.
# (§4) HAST (600 mU/mL) was reacted with leupeptin (10 μM) or BB1101 (5 μM) in 0.1% BSA-containing RPMI-1640 on ice for 30 minutes, and the reaction solution was mixed with the equivalent amount of a cell suspension preliminarily treated with leupeptin (10 μM) or BB1101 (5 μM) at 37° C. for 30 minutes, and further treated at 37° C. for 30 minutes (final HAST concentration: 300 mU/mL, final leupeptin concentration: 10 μM, final BB1101 concentration: 5 μM, final cell concentration: 5.0×10^6 cells/mL). The reaction solution was mixed with ice-cooled 1% FCS-containing PBS in an amount of five times that of the reaction solution to stop the reaction, and then supplied for the surface antigen analysis.
# (§5) The cells subjected to the prescribed treatments were suspended in 1% FCS-containing PBS in a density of 1.0×10^7 cells/mL. […]
# [2] = test system: HB-EGF on surface of H292 cell membrane; test: Surface antigen analysis (FACS) of HB-EGF on NCI-H292 cell membrane; format: cell-based, human
# Procedure: as §1, §2, §3, §4, §5
substance,measurement,setting,value
HAST: human airway-specific trypsin-like enzyme; propeptide moiety bound to trypsin-like protein moiety via a disulfide bond,cleavage of proEGF on the surfaces of the cell membranes,[1]; HAST 300 mU/mL,cleaved
same,EGF expression intensity on the surfaces of the cell membranes (average fluorescence intensity),"[1]; HAST 300 mU/mL, 37° C., 30 minutes, Back ground 4.62, PBS 7.26",4.88
same,EGF expression intensity on the surfaces of the cell membranes (average fluorescence intensity),"[1]; inhibitor experiment, HAST 300 mU/mL alone, Back ground 8.44, PBS 10.79",8.33
same,cleavage of proHB-EGF on the surfaces of the cell membranes,[2]; HAST 300 mU/mL,cleaved
same,HB-EGF expression intensity on the surfaces of the cell membranes (average fluorescence intensity),"[2]; HAST 300 mU/mL, 37° C., 30 minutes, Back ground 4.5, PBS 8.72",6.94
same,HB-EGF expression intensity on the surfaces of the cell membranes (average fluorescence intensity),"[2]; inhibitor experiment, HAST 300 mU/mL alone, Back ground 5.58, PBS 8.61",6.26
